Test systems include SF-539 CNS; COLO 205 colon; HCT-15 colon; HL-60(TB) leukemia; OVCAR-3 ovarian; OVCAR-8 ovarian; SF-268 CNS; CAKI-1 renal; SF-295 CNS; LOX IMVI melanoma.
Test in all cases: NCI tumour cell line growth inhibition, 48 h

SMILES strings stand for the structures. “And” between values parts separate entries of the source, which are not always exact repeats. Equal entries are not always repeated.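 These data come from cells grown in 96-well plates and exposed to compound for 48 hours at five concentrations. GI50 marks 50% less growth. TGI denotes the concentration required for complete inhibition of growth.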

Regarding `CC(=O)CC(=O)Nc1ccc(OS(N)(=O)=O)cc1`, the TGI in the experiment on SF-539 CNS, in the experiment on COLO 205 colon, in the experiment with HCT-15 colon, in the experiment on HL-60(TB) leukemia, with OVCAR-3 ovarian and in the experiment on OVCAR-8 ovarian was over 100 µM throughout. The TGI in the experiment with SF-268 CNS, in the experiment on CAKI-1 renal and with SF-295 CNS was over 100 µM each time.
On to `Cc1c(C(=O)Nc2ccc(Oc3ccnc4cc(OCC(C)(C)O)ccc34)c(F)c2)c(=O)n(-c2ccccc2)n1C`, for which the GI50 in the experiment on SF-539 CNS is 1.46 µM; in the experiment on COLO 205 colon, 2.81 µM; in the experiment with SF-268 CNS, 6.37 µM; with SF-295 CNS it was 0.782 µM. Besides, the TGI in the experiment with SF-539 CNS, in the experiment on COLO 205 colon, in the experiment on SF-268 CNS and in the experiment with SF-295 CNS was over 100 µM each time.
Consider `NC(=O)c1c(-c2ccccc2)c(-c2ccccc2)cc2c(=O)c3ccccc3[nH]c12`, for which the TGI is 37.4 µM with SF-539 CNS; over 100 µM with COLO 205 colon; over 100 µM in the experiment on HCT-15 colon; over 100 µM in the experiment with LOX IMVI melanoma; 46.4 µM with OVCAR-3 ovarian; 50 µM in the experiment with OVCAR-8 ovarian. Further, the TGI in the experiment with SF-268 CNS and in the experiment with SF-295 CNS was over 100 µM throughout.
For `CCCOC(=O)C1C(c2ccc(OC)cc2)NC(c2ccc(OC)cc2)C(C(=O)OCCC)S1(=O)=O` (stereo unspecified), the GI50 with SF-539 CNS, with COLO 205 colon, in the experiment with HCT-15 colon, in the experiment with OVCAR-3 ovarian, in the experiment on OVCAR-8 ovarian and in the experiment on SF-268 CNS was over 100 µM each time. Also, the GI50 in the experiment with CAKI-1 renal and with SF-295 CNS was over 100 µM throughout. The TGI in the experiment on SF-539 CNS, in the experiment on COLO 205 colon, in the experiment with HCT-15 colon, in the experiment with HL-60(TB) leukemia, with OVCAR-3 ovarian and in the experiment with OVCAR-8 ovarian was over 100 µM throughout. Besides, the TGI in the experiment on SF-268 CNS, in the experiment with CAKI-1 renal and in the experiment with SF-295 CNS was over 100 µM each time.
As to `C=CCN=C1NC(=O)C(CC(=O)Nc2ccc([N+](=O)[O-])cc2[N+](=O)[O-])S1` (stereo unspecified), the TGI in the experiment on SF-539 CNS, in the experiment on COLO 205 colon, in the experiment with HCT-15 colon, in the experiment on HL-60(TB) leukemia, in the experiment with OVCAR-3 ovarian and in the experiment on OVCAR-8 ovarian was over 100 µM in each case. The TGI with SF-268 CNS, in the experiment with CAKI-1 renal and with SF-295 CNS was over 100 µM throughout.
Turning to `NNC(=O)C(=O)N/N=C1\CCCC1C(=O)CCC(=O)Nc1cccc(Cl)c1` (stereo unspecified), the TGI in the experiment with COLO 205 colon, in the experiment with HL-60(TB) leukemia, in the experiment with LOX IMVI melanoma, with OVCAR-3 ovarian, in the experiment on OVCAR-8 ovarian and in the experiment on SF-268 CNS was over 100 µM in each case. For the same molecule, the TGI in the experiment with SF-295 CNS was over 100 µM.
On to `O=C1OC(=O)c2c1cc1cc3c(cc1c2-c1ccc2c(c1)OCO2)OCO3`, for which the TGI in the experiment with SF-539 CNS, with COLO 205 colon, with HCT-15 colon, in the experiment on HL-60(TB) leukemia, in the experiment with OVCAR-3 ovarian and with OVCAR-8 ovarian was over 100 µM each time. For the same molecule, the TGI in the experiment on SF-268 CNS, with CAKI-1 renal and with SF-295 CNS was over 100 µM each time.
As for `CN(COC(=O)C(C)(C)C)c1nc(N(C)COC(=O)C(C)(C)C)nc(N(C)COC(=O)C(C)(C)C)n1`, the TGI in the experiment on SF-539 CNS was over 100 µM; in the experiment with COLO 205 colon it was 35.5 µM; in the experiment with HCT-15 colon, 43.9 µM; with HL-60(TB) leukemia, 63.6 µM; with OVCAR-3 ovarian it was over 100 µM; in the experiment on SF-268 CNS it was over 100 µM. In addition, the TGI with CAKI-1 renal and in the experiment on SF-295 CNS was over 100 µM each time.
Turning to `COc1ccc(/C(=N/O)c2cc(F)c(F)c(OC)c2F)cc1O`, the GI50 in the experiment with SF-539 CNS is 0.427 µM; in the experiment with COLO 205 colon, 5.46 µM; with HCT-15 colon, 0.42 µM; with LOX IMVI melanoma, 0.605 µM; in the experiment with OVCAR-3 ovarian it was 0.345 µM; in the experiment with OVCAR-8 ovarian it was 3.1 µM. Also, the GI50 in the experiment on SF-268 CNS is 0.839 µM; in the experiment with CAKI-1 renal it was 0.538 µM; in the experiment on SF-295 CNS, 0.392 µM. Further, the TGI in the experiment with SF-539 CNS is 5.27 µM; with COLO 205 colon, 25.6 µM; in the experiment on HCT-15 colon, over 100 µM; in the experiment with LOX IMVI melanoma it was over 100 µM; in the experiment with OVCAR-3 ovarian it was 16.5 µM; in the experiment with OVCAR-8 ovarian, over 100 µM. Further, the values for the TGI in the experiment on SF-268 CNS, in the experiment with CAKI-1 renal and with SF-295 CNS were over 100 µM, over 100 µM and 18.2 µM, respectively.
Turning to `COc1cc(/C=C2\CC3C4CC=C5C[C@@H](N6CCCC6)CC[C@]5(C)C4CC[C@]3(C)[C@H]2OC(C)=O)ccc1OCCCn1ccnc1` (stereo partly specified), the GI50 is 0.196 µM in the experiment on SF-539 CNS; 0.104 µM in the experiment with COLO 205 colon; 0.135 µM in the experiment with HCT-15 colon; 0.393 µM with HL-60(TB) leukemia; 0.275 µM in the experiment with OVCAR-3 ovarian; 0.774 µM in the experiment with OVCAR-8 ovarian. Moreover, the GI50 in the experiment on SF-268 CNS is 3.87 µM; with CAKI-1 renal, 0.641 µM; in the experiment with SF-295 CNS it was 1.21 µM. The TGI in the experiment on SF-539 CNS is 0.459 µM; in the experiment with COLO 205 colon, over 50 µM; with HCT-15 colon it was 0.483 µM; with HL-60(TB) leukemia it was 1.31 µM; with OVCAR-3 ovarian it was 0.777 µM; in the experiment with OVCAR-8 ovarian, 2.79 µM. The values for the TGI in the experiment with SF-268 CNS, in the experiment on CAKI-1 renal and with SF-295 CNS were over 29.2 µM, 2.63 µM and 3.46 µM, respectively.
Take `CCOC(=O)C(c1ccsc1)P(=O)(OCC)OCC` (stereo unspecified): the TGI was found to be 30.2 µM with SF-539 CNS; 26.7 µM in the experiment on COLO 205 colon; 37.4 µM in the experiment on HCT-15 colon; 19.3 µM with LOX IMVI melanoma; 26.9 µM in the experiment on OVCAR-3 ovarian; 43.3 µM with OVCAR-8 ovarian. Moreover, the values for the TGI in the experiment on SF-268 CNS, with CAKI-1 renal and in the experiment on SF-295 CNS were 69.6 µM, 27.9 µM and 34 µM, respectively.
With `Cc1ccc(S(=O)(=O)NC(=O)Nc2ncn[nH]2)cc1`, the TGI in the experiment on SF-539 CNS, with COLO 205 colon, with HCT-15 colon, in the experiment with HL-60(TB) leukemia, with OVCAR-3 ovarian and in the experiment on OVCAR-8 ovarian was over 100 µM in each case. In addition, the TGI in the experiment with SF-268 CNS, in the experiment with CAKI-1 renal and with SF-295 CNS was over 100 µM each time.
On to `C[C@H]1CCC/C=C/[C@@H]2C[C@H](O)C[C@H]2[C@H](O)C(O)C(O)C(=O)O1` (stereo partly specified), for which the GI50 is 0.677 µM in the experiment with SF-539 CNS; 4.07 µM in the experiment on COLO 205 colon; 0.251 µM in the experiment on HL-60(TB) leukemia; 2.35 µM with OVCAR-3 ovarian; 1.16 µM in the experiment with OVCAR-8 ovarian; 1.19 µM in the experiment on SF-268 CNS. For the same molecule, the figures for the GI50 with CAKI-1 renal and with SF-295 CNS were 3.78 µM and 4.66 µM, respectively. In addition, the TGI was over 100 µM in the experiment on SF-539 CNS; over 100 µM in the experiment with COLO 205 colon; 2.31 µM in the experiment with HL-60(TB) leukemia; 20.1 µM in the experiment on OVCAR-3 ovarian; 5.11 µM in the experiment with OVCAR-8 ovarian; over 100 µM in the experiment with SF-268 CNS. For the same molecule, the results for the TGI in the experiment on CAKI-1 renal and with SF-295 CNS were 46 µM and over 100 µM, respectively.
Consider `COc1ccc(-c2cc(-c3ccco3)c(C#N)c(=O)n2C2OC(COC(C)=O)C(OC(C)=O)C(OC(C)=O)C2OC(C)=O)cc1` (stereo unspecified), for which the GI50 in the experiment with SF-539 CNS was > 100 µM and 11.7 µM; in the experiment on HCT-15 colon, > 100 µM and 39 µM; in the experiment with LOX IMVI melanoma, 59.4 µM and 14.1 µM; in the experiment on OVCAR-3 ovarian, > 100 µM and 18.1 µM; in the experiment on OVCAR-8 ovarian, > 100 µM and 10.9 µM; with SF-268 CNS, > 100 µM and 28.2 µM. The GI50 in the experiment with SF-295 CNS was > 100 µM and 25.7 µM. The TGI with SF-539 CNS was > 100 µM and 23.9 µM; in the experiment on COLO 205 colon, over 100 µM; with HCT-15 colon, over 100 µM; in the experiment on LOX IMVI melanoma it was > 100 µM and 59.6 µM; in the experiment on OVCAR-3 ovarian, > 100 µM and 44.3 µM; in the experiment on OVCAR-8 ovarian, > 100 µM and 40.4 µM. Besides, the TGI in the experiment with SF-268 CNS, with CAKI-1 renal and in the experiment with SF-295 CNS was over 100 µM each time.
As for `O=C(N/N=C/c1coc2ccc(Cl)cc2c1=O)c1cc(O)c(O)c(O)c1`, the GI50 with SF-539 CNS was 23.6 µM; in the experiment with COLO 205 colon, 55.7 µM; in the experiment on HCT-15 colon, 21.5 µM; with LOX IMVI melanoma, 22.5 µM; in the experiment on OVCAR-3 ovarian it was 40.4 µM; in the experiment on OVCAR-8 ovarian, 18.6 µM. Further, the GI50 is over 100 µM in the experiment on SF-268 CNS, 25 µM with CAKI-1 renal and 45.8 µM with SF-295 CNS. The TGI with SF-539 CNS was 62.7 µM; in the experiment with COLO 205 colon, over 100 µM; in the experiment with HCT-15 colon it was 79.7 µM; in the experiment on LOX IMVI melanoma, 56.6 µM; in the experiment with OVCAR-3 ovarian it was over 100 µM; with OVCAR-8 ovarian, over 100 µM. The TGI is over 100 µM with SF-268 CNS, 70 µM in the experiment on CAKI-1 renal and over 100 µM with SF-295 CNS.
Regarding `CN1C=C(C(N)=O)Cc2ccsc21`, the TGI with SF-539 CNS, in the experiment with COLO 205 colon, in the experiment with HCT-15 colon, in the experiment with HL-60(TB) leukemia, in the experiment with OVCAR-3 ovarian and in the experiment on OVCAR-8 ovarian was over 100 µM throughout. The TGI in the experiment on SF-268 CNS, in the experiment on CAKI-1 renal and in the experiment with SF-295 CNS was over 100 µM each time.
For the molecule `O=C1C=C(c2ccccc2)NC1(c1ccccc1)c1cc(-c2ccccc2)[nH]c1-c1ccccc1` (stereo unspecified), the TGI with SF-539 CNS, in the experiment with COLO 205 colon, with HCT-15 colon, with HL-60(TB) leukemia, in the experiment with OVCAR-3 ovarian and with OVCAR-8 ovarian was over 100 µM throughout. For the same molecule, the TGI in the experiment with CAKI-1 renal and in the experiment on SF-295 CNS was over 100 µM each time.

Source of the values: PubChem BioAssay (NCI).
